From PubChem BioAssay (NCI)
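Compound exposure: 48 hours, 5 concentrations, 96-well plates. At the GI50, growth is halved. Definition used: TGI = concentration required for complete inhibition of growth.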

Key:
Experiment in all cases: NCI-60 cell line screen, 48 h
786-0 renal = test system: 786-0 renal
A498 renal = test system: A498 renal
A549 NSCLC = test system: A549 NSCLC
ACHN renal = test system: ACHN renal
BT-549 breast = test system: BT-549 breast
CAKI-1 renal = test system: CAKI-1 renal
CCRF-CEM leukemia = test system: CCRF-CEM leukemia
COLO 205 colon = test system: COLO 205 colon
DU-145 prostate = test system: DU-145 prostate
EKVX NSCLC = test system: EKVX NSCLC
HCC-2998 colon = test system: HCC-2998 colon
HCT-116 colon = test system: HCT-116 colon
HCT-15 colon = test system: HCT-15 colon
HL-60(TB) leukemia = test system: HL-60(TB) leukemia
HOP-62 NSCLC = test system: HOP-62 NSCLC
HOP-92 NSCLC = test system: HOP-92 NSCLC
HS 578T breast = test system: HS 578T breast
HT29 colon = test system: HT29 colon
IGROV1 ovarian = test system: IGROV1 ovarian
K-562 leukemia = test system: K-562 leukemia
KM12 colon = test system: KM12 colon
LOX IMVI melanoma = test system: LOX IMVI melanoma
M14 melanoma = test system: M14 melanoma
MALME-3M melanoma = test system: MALME-3M melanoma
MCF7 breast = test system: MCF7 breast
MDA-MB-231 breast = test system: MDA-MB-231 breast
MOLT-4 leukemia = test system: MOLT-4 leukemia
NCI-H226 lung = test system: NCI-H226 lung
NCI-H23 lung = test system: NCI-H23 lung
NCI-H460 lung = test system: NCI-H460 lung
NCI-H522 lung = test system: NCI-H522 lung
NCI/ADR-RES ovarian = test system: NCI/ADR-RES ovarian
OVCAR-3 ovarian = test system: OVCAR-3 ovarian
OVCAR-4 ovarian = test system: OVCAR-4 ovarian
OVCAR-5 ovarian = test system: OVCAR-5 ovarian
OVCAR-8 ovarian = test system: OVCAR-8 ovarian
PC-3 prostate = test system: PC-3 prostate
RPMI-8226 leukemia = test system: RPMI-8226 leukemia
SF-268 CNS = test system: SF-268 CNS
SF-295 CNS = test system: SF-295 CNS
SF-539 CNS = test system: SF-539 CNS
SK-MEL-2 melanoma = test system: SK-MEL-2 melanoma
SK-MEL-28 melanoma = test system: SK-MEL-28 melanoma
SK-MEL-5 melanoma = test system: SK-MEL-5 melanoma
SK-OV-3 ovarian = test system: SK-OV-3 ovarian
SN12C renal = test system: SN12C renal
SNB-19 CNS = test system: SNB-19 CNS
SNB-75 CNS = test system: SNB-75 CNS
SR leukemia = test system: SR leukemia
SW-620 colon = test system: SW-620 colon
T-47D breast = test system: T-47D breast
TK-10 renal = test system: TK-10 renal
U251 CNS = test system: U251 CNS
UACC-257 melanoma = test system: UACC-257 melanoma
UACC-62 melanoma = test system: UACC-62 melanoma
UO-31 renal = test system: UO-31 renal

## O=C(N/N=C/c1cccs1)c1[nH]c2ccc(Br)cc2c1-c1ccccc1
786-0 renal
  GI50: 0.186 µM
  TGI: > 100 µM
A498 renal
  GI50: > 83.8 µM
  TGI: > 100 µM
A549 NSCLC
  GI50: 0.125 µM
  TGI: > 100 µM
ACHN renal
  GI50: 0.103 µM
  TGI: > 82.9 µM
BT-549 breast
  GI50: 0.0976 µM
  TGI: 0.474 µM
CAKI-1 renal
  GI50: 0.153 µM
  TGI: > 100 µM
CCRF-CEM leukemia
  GI50: 0.0619 µM
  TGI: > 100 µM
COLO 205 colon
  GI50: 0.152 µM
  TGI: 0.32 µM
DU-145 prostate
  GI50: 0.063 µM
  TGI: > 100 µM
EKVX NSCLC
  GI50: 2.2 µM
  TGI: > 100 µM
HCC-2998 colon
  GI50: 0.142 µM
  TGI: 43.3 µM
HCT-116 colon
  GI50: 0.0345 µM
  TGI: > 100 µM
HCT-15 colon
  GI50: 0.0418 µM
  TGI: > 57.2 µM
HL-60(TB) leukemia
  GI50: 0.0868 µM
  TGI: 0.358 µM
HOP-62 NSCLC
  GI50: 0.15 µM
  TGI: > 93.4 µM
HOP-92 NSCLC
  GI50: 1.12 µM
  TGI: > 100 µM
HS 578T breast
  GI50: 0.0657 µM
  TGI: > 100 µM
HT29 colon
  GI50: 0.0368 µM
  TGI: 1.57 µM
IGROV1 ovarian
  GI50: 0.0818 µM
  TGI: > 100 µM
K-562 leukemia
  GI50: 0.0367 µM
  TGI: > 100 µM
KM12 colon
  GI50: 0.152 µM
  TGI: > 100 µM
LOX IMVI melanoma
  GI50: 0.0347 µM
  TGI: 22.8 µM
M14 melanoma
  GI50: 0.0699 µM
  TGI: > 100 µM
MALME-3M melanoma
  GI50: 0.179 µM
  TGI: > 100 µM
MCF7 breast
  GI50: 0.0374 µM
  TGI: > 35.5 µM
MDA-MB-231 breast
  GI50: 0.128 µM
  TGI: 0.687 µM
MOLT-4 leukemia
  GI50: 0.152 µM
  TGI: > 100 µM
NCI-H226 lung
  GI50: 0.24 µM
  TGI: > 100 µM
NCI-H23 lung
  GI50: 0.0883 µM
  TGI: > 100 µM
NCI-H460 lung
  GI50: 0.0657 µM
  TGI: 3.22 µM
NCI-H522 lung
  GI50: 0.0242 µM
  TGI: 0.0809 µM
NCI/ADR-RES ovarian
  GI50: 0.0392 µM
OVCAR-3 ovarian
  GI50: 0.0637 µM
  TGI: > 72.9 µM
OVCAR-4 ovarian
  GI50: 0.34 µM
  TGI: > 100 µM
OVCAR-5 ovarian
  GI50: 0.109 µM
  TGI: > 100 µM
OVCAR-8 ovarian
  GI50: 0.0442 µM
PC-3 prostate
  GI50: 0.224 µM
  TGI: > 100 µM
RPMI-8226 leukemia
  GI50: 0.0542 µM
  TGI: > 76.5 µM
SF-268 CNS
  GI50: 0.404 µM
  TGI: > 100 µM
SF-295 CNS
  GI50: 0.0392 µM
  TGI: 39.6 µM
SF-539 CNS
  GI50: 0.0283 µM
  TGI: 0.115 µM
SK-MEL-2 melanoma
  GI50: 0.15 µM
  TGI: > 100 µM
SK-MEL-28 melanoma
  GI50: 0.612 µM
  TGI: > 100 µM
SK-MEL-5 melanoma
  GI50: 0.0638 µM
  TGI: 0.23 µM
SK-OV-3 ovarian
  GI50: 0.345 µM
  TGI: > 100 µM
SN12C renal
  GI50: 0.0728 µM
  TGI: > 51.2 µM
SNB-19 CNS
  GI50: 0.124 µM
  TGI: > 100 µM
SNB-75 CNS
  GI50: 0.226 µM
  TGI: 8.49 µM
SR leukemia
  GI50: 0.0412 µM
  TGI: > 100 µM
SW-620 colon
  GI50: 0.0405 µM
  TGI: > 100 µM
T-47D breast
  GI50: 8.84 µM
  TGI: > 100 µM
TK-10 renal
  GI50: 5.74 µM
  TGI: > 100 µM
U251 CNS
  GI50: 0.0746 µM
  TGI: > 100 µM
UACC-257 melanoma
  GI50: 0.297 µM
  TGI: > 100 µM
UACC-62 melanoma
  GI50: 0.0516 µM
  TGI: > 100 µM
UO-31 renal
  GI50: 0.12 µM
  TGI: > 100 µM
